Legend:
Format in all cases: biochemical
KDM2B (FBXL10) = target: T1, KDM2B (FBXL10) (Homo sapiens, UniProt Q8NHM5); assay: Histone lysine demethylase AlphaLISA assay, KDM2B; conditions: read-out: KDM2B HDME Inhibition IC50
T1 sequence (Q8NHM5 1-650): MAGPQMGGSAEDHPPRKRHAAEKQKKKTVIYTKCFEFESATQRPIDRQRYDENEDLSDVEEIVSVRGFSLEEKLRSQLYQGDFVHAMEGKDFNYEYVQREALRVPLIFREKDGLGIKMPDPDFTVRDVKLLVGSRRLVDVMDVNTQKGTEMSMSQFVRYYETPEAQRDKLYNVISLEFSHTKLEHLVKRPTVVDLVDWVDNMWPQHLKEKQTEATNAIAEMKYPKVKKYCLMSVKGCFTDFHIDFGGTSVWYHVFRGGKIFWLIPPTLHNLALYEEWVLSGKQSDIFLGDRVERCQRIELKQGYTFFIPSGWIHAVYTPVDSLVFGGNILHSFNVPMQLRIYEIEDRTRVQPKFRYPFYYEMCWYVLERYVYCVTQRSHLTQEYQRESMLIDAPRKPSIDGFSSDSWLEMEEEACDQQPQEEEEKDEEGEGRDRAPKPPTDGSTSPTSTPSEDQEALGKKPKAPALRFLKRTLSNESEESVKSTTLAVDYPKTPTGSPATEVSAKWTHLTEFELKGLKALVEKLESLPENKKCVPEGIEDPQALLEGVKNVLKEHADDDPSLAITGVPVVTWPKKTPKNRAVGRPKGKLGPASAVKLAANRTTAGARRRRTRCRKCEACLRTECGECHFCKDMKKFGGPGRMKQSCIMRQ
Method in brief: (§1)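 AlphaLISA demethylation readout: enzyme preincubated 10 min, then 10 min with compounds in 3% DMSO buffer, before biotinylated methyl-lysine histone peptide substrate with 25 μM L-Asc and 10 μM α-KG, room temperature. Acceptor beads then streptavidin donor beads added, dark incubation, plates read.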

KDM5B (PLU-1) = target: T2, KDM5B (PLU-1) (Homo sapiens, UniProt Q9UGL1); assay: Histone lysine demethylase AlphaLISA assay, KDM5B; conditions: read-out: KDM5B HDME Inhibition IC50
T2 sequence (Q9UGL1 1-809): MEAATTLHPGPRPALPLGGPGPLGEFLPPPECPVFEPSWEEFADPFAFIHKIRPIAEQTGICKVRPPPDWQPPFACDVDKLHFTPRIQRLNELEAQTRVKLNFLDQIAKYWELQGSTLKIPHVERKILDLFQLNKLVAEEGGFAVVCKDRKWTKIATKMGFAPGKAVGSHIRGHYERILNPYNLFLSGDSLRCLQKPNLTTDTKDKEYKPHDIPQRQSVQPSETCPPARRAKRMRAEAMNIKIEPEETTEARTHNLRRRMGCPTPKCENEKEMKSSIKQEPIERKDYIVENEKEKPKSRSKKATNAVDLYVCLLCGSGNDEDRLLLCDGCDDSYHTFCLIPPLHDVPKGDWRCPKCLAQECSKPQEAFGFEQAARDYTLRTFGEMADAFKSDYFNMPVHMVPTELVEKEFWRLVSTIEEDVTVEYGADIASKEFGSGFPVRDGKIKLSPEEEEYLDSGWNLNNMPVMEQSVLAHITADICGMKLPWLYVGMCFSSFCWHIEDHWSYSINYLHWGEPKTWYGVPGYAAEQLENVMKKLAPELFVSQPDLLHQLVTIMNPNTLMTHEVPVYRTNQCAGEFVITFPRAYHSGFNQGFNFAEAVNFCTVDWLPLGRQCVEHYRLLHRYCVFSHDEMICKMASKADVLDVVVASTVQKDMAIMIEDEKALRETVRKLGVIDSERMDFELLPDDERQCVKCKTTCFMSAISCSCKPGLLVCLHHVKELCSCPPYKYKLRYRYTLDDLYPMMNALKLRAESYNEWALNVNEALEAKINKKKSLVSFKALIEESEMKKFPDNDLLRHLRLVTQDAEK
Method in brief: as §1

KDM6B (JMJD3) = target: T3, KDM6B (JMJD3) (Homo sapiens, UniProt O15054); assay: Histone lysine demethylase AlphaLISA assay, KDM6B; conditions: read-out: KDM6B HDME Inhibition IC50
T3 construct: 1043-end; purchased BPS; host or cells: Bac (baculovirus system)
T3 sequence (O15054 1043-1682 isoform O15054-1 limits assumed): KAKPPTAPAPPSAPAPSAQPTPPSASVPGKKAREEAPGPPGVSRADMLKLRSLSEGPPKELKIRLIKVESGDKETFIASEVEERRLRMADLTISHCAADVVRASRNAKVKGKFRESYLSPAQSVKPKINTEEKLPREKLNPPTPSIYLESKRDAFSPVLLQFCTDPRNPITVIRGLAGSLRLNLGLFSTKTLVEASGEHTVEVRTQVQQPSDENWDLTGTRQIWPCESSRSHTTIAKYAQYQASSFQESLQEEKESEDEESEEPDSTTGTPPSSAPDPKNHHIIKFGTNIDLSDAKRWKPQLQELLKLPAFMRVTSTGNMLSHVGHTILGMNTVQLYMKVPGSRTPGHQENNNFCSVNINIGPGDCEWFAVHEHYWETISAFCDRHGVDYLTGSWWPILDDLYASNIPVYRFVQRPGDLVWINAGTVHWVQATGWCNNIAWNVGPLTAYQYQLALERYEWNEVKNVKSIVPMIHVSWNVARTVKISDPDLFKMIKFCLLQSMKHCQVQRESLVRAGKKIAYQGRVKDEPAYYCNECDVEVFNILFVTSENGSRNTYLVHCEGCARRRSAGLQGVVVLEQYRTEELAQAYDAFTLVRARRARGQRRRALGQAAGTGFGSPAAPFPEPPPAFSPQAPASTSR
Protocol: (§2) Assays are performed analogously to the protocol described by PerkinElmer (Roy et al. PerkinElmer Technical Note: AlphaLISA #12, April 2011)
Enzymes are dissolved in enzyme buffer and incubated for 10 min before being added to 3% DMSO solutions of compounds in enzyme buffer. Incubated for another 10 minutes, before substrate solution is added and the reaction mixture is incubated at room temperature. 10 μL acceptor beads, suspended in Epigenetic Buffer (Perkin Elmer AL008) from stock, are added and the suspension is incubated in the dark at room temperature, before a suspension of streptavidin donor beads (Perkin Elmer 6760002) in Epigenetic Buffer is added. After incubation at room temperature in the dark the plates are read. […]
BK27M3: Biotin-ATKAAR(Kme3)SAPATGGVKKPHRY-NH2? (Caslo, Denmark) […]
(§3) Substrate Solution: Substrate, 25 μM L-Asc, and 10 μM α-KG in Buffer A.

KDM4B (JMJD2B) = target: T4, KDM4B (JMJD2B) (Homo sapiens, UniProt O94953); assay: Histone lysine demethylase AlphaLISA assay, KDM4B; conditions: read-out: KDM4B HDME Inhibition IC50
T4 construct: 2-500; purchased BPS; host or cells: Bac (baculovirus system)
T4 sequence (O94953 2-500): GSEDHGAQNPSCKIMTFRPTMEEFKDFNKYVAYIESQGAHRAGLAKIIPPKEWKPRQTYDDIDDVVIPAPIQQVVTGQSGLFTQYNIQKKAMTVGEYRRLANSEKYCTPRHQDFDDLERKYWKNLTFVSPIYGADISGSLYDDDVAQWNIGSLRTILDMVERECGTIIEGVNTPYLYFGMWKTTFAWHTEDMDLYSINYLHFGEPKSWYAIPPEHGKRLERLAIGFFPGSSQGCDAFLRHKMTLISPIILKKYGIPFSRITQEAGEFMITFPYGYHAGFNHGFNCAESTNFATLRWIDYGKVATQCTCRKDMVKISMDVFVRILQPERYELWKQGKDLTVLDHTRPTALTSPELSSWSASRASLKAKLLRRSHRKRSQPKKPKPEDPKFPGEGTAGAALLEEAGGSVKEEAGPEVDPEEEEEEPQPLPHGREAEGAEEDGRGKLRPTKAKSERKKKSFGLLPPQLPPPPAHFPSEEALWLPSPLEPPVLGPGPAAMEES
Protocol: as §2
Enzymes are dissolved in enzyme buffer and incubated for 10 min before being added to 3% DMSO solutions of compounds in enzyme buffer. Incubated for another 10 minutes, before substrate solution is added and the reaction mixture is incubated at room temperature. 10 μL acceptor beads, suspended in Epigenetic Buffer (Perkin Elmer AL008) from stock, are added and the suspension is incubated in the dark at room temperature, before a suspension of streptavidin donor beads (Perkin Elmer 6760002) in Epigenetic Buffer is added. After incubation at room temperature in the dark the plates are read.
BK9M3: Biotin-ARTKQTAR(KMe3)STGGKAPRKQ-NH2 (Caslo, Denmark) […]
as §3

Compound	IC50 (KDM2B (FBXL10)) [nM]	IC50 (KDM5B (PLU-1)) [nM]	IC50 (KDM6B (JMJD3)) [nM]	IC50 (KDM4B (JMJD2B)) [nM]
CC(C)C[C@H](NCc1cc(/C=N/CCO)ccn1)C(=O)N1CCCCC1 [Compound 95, (2S)-2-[({4-[[(2-hydroxyethyl)imino]-methyl]pyridin-2-yl}methyl)amino]-4-methyl-1-(piperidin-1-yl)pentan-1-one]	> 2500	> 2500	–	–
CN1CCC(CNCc2cc(C=O)ccn2)CC1 [Compound 100, 2-({[(1-methyl-piperidin-4-yl)methyl]amino}-methyl)pyridine-4-carbaldehyde]	> 2500	< 250	> 2500	–
CCN(CC)CCCCNC(=O)CNCc1cc(C=O)ccn1 [Compound 112, N-[4-(diethylamino)-butyl]-2-{[(4-formylpyridin-2-yl)methyl]amino}-acetamide]	> 2500	–	> 2500	–
CN(C)C/C=C\CNCc1cc(C=O)ccn1 [Compound 99, 2-({[(2Z)-4-(dimethylamino)-but-2-en-1-yl]amino}methyl)-pyridine-4-carbaldehyde]	> 2500	< 250	> 2500	–
CCN(CC)CCCCNCc1cc(/C=N\CCC2CCCCC2)ccn1 [Compound 67, (2-cyclohexylethyl)-({[2-({[4-(diethylamino)-butyl]amino}methyl)pyridin-4-yl]methylidene})-amine]	> 2500	< 250	–	> 2500
CN(CC(=O)N1CCCCC1)Cc1cc(C=O)ccn1 [Compound 120, 2-({methyl[2-oxo-2-(piperidin-1-yl)ethyl]amino}-methyl)pyridine-4-carbaldehyde]	> 2500	> 2500	–	–
CN(C)CC1CCC(CNCc2cc(C=O)ccn2)CC1 (stereo not drawn) [Compound 97, 2-{[({4-[(dimethylamino)-methyl]cyclohexyl}-methyl)amino]-methyl}pyridine-4-carbaldehyde]	> 2500	250 to 2500	> 2500	–
CN(C)CCNCc1cc(C=O)ccn1 [Compound 110, 2-({[2-(dimethylamino)-ethyl]amino}methyl)-pyridine-4-carbaldehyde]	> 2500	250 to 2500	> 2500	–
CCN(CCN(C)C)C(=O)CNCc1cc(C2OCC3(CC3)CN2C(=O)C(F)(F)F)ccn1 (stereo not drawn) [Compound 91, N-[2--(dimethylamino)-ethyl]-N-ethyl-2-[({4-[7-(trifluoroacetyl)-5-oxa-7-azaspiro[2.5]-octan-6-yl]pyridin-2-yl}methyl)amino]-acetamide]	> 2500	< 250	–	–
CCN(CC)CCCCN(Cc1cc(C=O)ccn1)C(=O)C(F)(F)F [Compound 115, N-[4-(diethylamino)butyl]-2,2,2-trifluoro-N-[(4-formylpyridin-2-yl)methyl]acetamide]	> 2500	> 2500	> 2500	–
CCN(CC(C)(C)N(C)C)C(=O)CNCc1cc(C=O)ccn1 [Compound 118, N-[2-(dimethylamino)-2-methylpropyl]-N-ethyl-2-{[(4-formylpyridin-2-yl)methyl]amino}-acetamide]	> 2500	< 250	–	–

Other lines, results leading:

IC50 (KDM2B (FBXL10)) [nM]	IC50 (KDM5B (PLU-1)) [nM]	IC50 (KDM6B (JMJD3)) [nM]	IC50 (KDM4B (JMJD2B)) [nM]	Compound
> 2500	> 2500	–	–	OCC/N=C/c1ccnc(CNCCc2ccccc2OCc2ccccc2)c1 [Compound 93, 2-[({2-[({2-[2-(benzyloxy)phenyl]-ethyl}amino)methyl]-pyridin-4-yl}methylidene)-amino]ethan-1-ol]
250 to 2500	< 250	> 2500	< 250	CCN(CCC#N)C(=O)CNCc1cc(/C=N/C2CC2)ccn1 [Compound 50, N-(2-cyanoethyl)-2-[({4-[N-cyclopropyl-carboximidoyl]-pyridin-2-yl}methyl)amino]-N-ethylacetamide]
> 2500	250 to 2500	> 2500	> 2500	CN1CCN(C(=O)CNCc2cc(C=O)ccn2)CC1 [Compound 103, 2-({[2-(4-methylpiperazin-1-yl)-2-oxoethyl]-amino}methyl)-pyridine-4-carbaldehyde]
> 2500	< 250	> 2500	< 250	O=C(CNCc1cc(/C=N/C2CC2)ccn1)N1CCC(Cc2ccccc2)CC1 [Compound 55, 1-(4-benzylpiperidin-1-yl)-2-[({4-[N-cyclopropyl-carboximidoyl]-pyridin-2-yl}methyl)amino]-ethan-1-one]
> 2500	250 to 2500	> 2500	–	CN(C)CCCCNCc1cc(C=O)ccn1 [Compound 108, 2-({[4-(dimethylamino)-butyl]amino}methyl)-pyridine-4-carbaldehyde]
> 2500	< 250	–	–	CCN(CCN(C)C)C(=O)CNCc1cc(C2OCC(Cc3ccccc3)CN2C(=O)C(F)(F)F)ccn1 (stereo not drawn) [Compound 90, 2-[({4-[5-benzyl-3-(trifluoroacetyl)-1,3-oxazinan-2-yl]pyridin-2-yl}methyl)amino]-N-[2-(dimethylamino)-ethyl]-N-ethylacetamide]
250 to 2500	< 250	–	–	CCN(CCC#N)C(=O)CNCc1cc(/C=N/CCO)ccn1 [Compound 94, N-(2-cyanoethyl)-N-ethyl-2-[({4-[[(2-hydroxyethyl)imino]-methyl]pyridin-2-yl}methyl)amino]-acetamide]
> 2500	250 to 2500	–	–	CN(Cc1ccccc1F)C(=O)CNCc1cc(/C=N/CCO)ccn1 [Compound 92, N-[(2-fluorophenyl)methyl]-2-[({4-[[(2-hydroxyethyl)imino]-methyl]pyridin-2-yl}methyl)amino]-N-methylacetamide]
